Measurements as given in patent US6737383B1, “Herbicidal oxadiazolidines” (priority 1999, dated 2004).

Assays:
bedstraw = experiment: Test B pre/postemergence bedstraw; assay type: in vivo, Galium aparine
In short: (§1)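 Test chemicals in a non-phytotoxic solvent mixture with surfactant were sprayed preemergence onto planted seeds and postemergence onto plants 2 to 18 cm tall (1- to 4-leaf stage). After twelve to sixteen days in a greenhouse, injury was visually rated against untreated controls from 0 (no effect) to 10 (complete control).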

blackgrass = experiment: Test B pre/postemergence blackgrass; assay type: in vivo, Alopecurus myosuroides
In short: as §1

surinam grass = experiment: Test B pre/postemergence surinam grass; assay type: in vivo, Brachiaria decumbens
In short: as §1

cocklebur = experiment: Test B pre/postemergence cocklebur; assay type: in vivo, Xanthium strumarium
In short: as §1

corn = experiment: Test B pre/postemergence corn; assay type: in vivo, Zea mays
In short: as §1

crabgrass = experiment: Test B pre/postemergence crabgrass; assay type: in vivo, Digitaria sanguinalis
In short: as §1

giant foxtail = experiment: Test B pre/postemergence giant foxtail; assay type: in vivo, Setaria faberii
In short: as §1

morningglory = experiment: Test B pre/postemergence morningglory; assay type: in vivo, Ipomoea hederacea
In short: as §1

pigweed = experiment: Test B pre/postemergence pigweed; assay type: in vivo, Amaranthus retroflexus
In short: as §1

rape = experiment: Test B pre/postemergence rape; assay type: in vivo, Brassica napus
In short: as §1

soybean = experiment: Test B pre/postemergence soybean; assay type: in vivo, Glycine max
In short: as §1

sugar beet = experiment: Test B pre/postemergence sugar beet; assay type: in vivo, Beta vulgaris
In short: as §1

velvetleaf = experiment: Test B pre/postemergence velvetleaf; assay type: in vivo, Abutilon theophrasti
In short: as §1

wheat = experiment: Test B pre/postemergence wheat; assay type: in vivo, Triticum aestivum
In short: as §1

wild oat = experiment: Test B pre/postemergence wild oat; assay type: in vivo, Avena fatua
In short: as §1

purple nutsedge = experiment: Test B pre/postemergence purple nutsedge; assay type: in vivo, Cyperus rotundus
In short: as §1

[1] = Postemergence, Rate 62 g/ha, scale 0 to 10, 0 is no effect, 10 is complete control
[2] = Preemergence, Rate 125 g/ha, scale of 0 to 10 where 0 is no effect and 10 is complete control
[3] = Preemergence, Rate 250 g/ha, scale 0 (no effect) to 10 (complete control)
[4] = Rate 62 g/ha, Preemergence, scale 0 to 10
[5] = Rate 250 g/ha, Postemergence, scale 0 to 10, 0 is no effect, 10 is complete control
[6] = Rate 500 g/ha, Preemergence, scale 0 to 10 (0 no effect, 10 complete control)
[7] = Postemergence, Rate 125 g/ha, scale of 0 to 10 where 0 is no effect and 10 is complete control
[8] = Rate 500 g/ha, Postemergence, scale 0 to 10, 0 is no effect, 10 is complete control

## CC(C)N(C(=O)n1oc(=O)n(CCCCl)c1=O)c1ccc(Cl)cc1 [Compound 749]
bedstraw; [1]
  Plant response rating, Bedstraw: 3
bedstraw; [2]
  Plant response rating, Bedstraw: 0
bedstraw; [3]
  Bedstraw plant response rating: 0
bedstraw; [4]
  Bedstraw plant response rating: 0
bedstraw; [5]
  Bedstraw plant response rating: 3
bedstraw; [6]
  Bedstraw plant response rating: 4
blackgrass; [1]
  Plant response rating, Blackgrass: 5
blackgrass; [7]
  Blackgrass plant response rating: 5
blackgrass; [2]
  Plant response rating, Blackgrass: 2
blackgrass; [3]
  Blackgrass plant response rating: 6
blackgrass; [4]
  Blackgrass plant response rating: 0
blackgrass; [5]
  Blackgrass plant response rating: 6
blackgrass; [8]
  Blackgrass plant response rating: 6
blackgrass; [6]
  Blackgrass plant response rating: 9
Surinam grass; [1]
  Plant response rating, B. signalgrass: 2
Surinam grass; [7]
  B. signalgrass plant response rating: 2
Surinam grass; Preemergence, Rate 62 g/ha, scale of 0 to 10 where 0 is no effect and 10 is complete control
  B. signalgrass plant response rating: 0
Surinam grass; [2]
  Plant response rating, B. signalgrass: 2
Surinam grass; [3]
  B. signalgrass plant response rating: 8
Surinam grass; [5]
  B. signalgrass plant response rating: 3
Surinam grass; [8]
  B. signalgrass plant response rating: 3
Surinam grass; [6]
  B. signalgrass plant response rating: 10
cocklebur; [1]
  Plant response rating, Cocklebur: 0
cocklebur; [7]
  Cocklebur plant response rating: 2
cocklebur; [2]
  Plant response rating, Cocklebur: 0
cocklebur; [3]
  Cocklebur plant response rating: 0
cocklebur; [5]
  Cocklebur plant response rating: 4
cocklebur; [8]
  Cocklebur plant response rating: 4
cocklebur; [6]
  Cocklebur plant response rating: 0
corn; [1]
  Plant response rating, Corn: 0
corn; [7]
  Corn plant response rating: 0
corn; [2]
  Plant response rating, Corn: 0
corn; [3]
  Corn plant response rating: 0
corn; [4]
  Corn plant response rating: 0
corn; [5]
  Corn plant response rating: 0
corn; [8]
  Corn plant response rating: 1
corn; [6]
  Corn plant response rating: 0
crabgrass; [1]
  Plant response rating, Crabgrass: 4
crabgrass; [7]
  Crabgrass plant response rating: 8
crabgrass; [2]
  Plant response rating, Crabgrass: 10
crabgrass; [3]
  Crabgrass plant response rating: 10
crabgrass; [4]
  Crabgrass plant response rating: 9
crabgrass; [5]
  Crabgrass plant response rating: 9
crabgrass; [8]
  Crabgrass plant response rating: 9
crabgrass; [6]
  Crabgrass plant response rating: 10
Giant foxtail; [1]
  Plant response rating, Giant foxtail: 3
Giant foxtail; [7]
  Giant foxtail plant response rating: 5
Giant foxtail; [2]
  Plant response rating, Giant foxtail: 10
Giant foxtail; [3]
  Giant foxtail plant response rating: 10
Giant foxtail; [4]
  Giant foxtail plant response rating: 9
Giant foxtail; [5]
  Giant foxtail plant response rating: 9
Giant foxtail; [8]
  Giant foxtail plant response rating: 9
Giant foxtail; [6]
  Giant foxtail plant response rating: 10
morningglory; [1]
  Plant response rating, Morningglory: 2
morningglory; [7]
  Morningglory plant response rating: 3
morningglory; [2]
  Plant response rating, Morningglory: 0
morningglory; [3]
  Morningglory plant response rating: 0
morningglory; [4]
  Morningglory plant response rating: 0
morningglory; [5]
  Morningglory plant response rating: 5
morningglory; [8]
  Morningglory plant response rating: 5
morningglory; [6]
  Morningglory plant response rating: 0
pigweed; [1]
  Plant response rating, Redroot pigweed: 4
pigweed; [7]
  Redroot pigweed plant response rating: 4
pigweed; [2]
  Plant response rating, Redroot pigweed: 5
pigweed; [3]
  Redroot pigweed plant response rating: 7
pigweed; [4]
  Redroot pigweed plant response rating: 0
pigweed; [5]
  Redroot pigweed plant response rating: 4
pigweed; [8]
  Redroot pigweed plant response rating: 7
pigweed; [6]
  Redroot pigweed plant response rating: 9
rape; [1]
  Plant response rating, Rape: 2
rape; [7]
  Rape plant response rating: 2
rape; [2]
  Plant response rating, Rape: 0
rape; [3]
  Rape plant response rating: 0
rape; [4]
  Rape plant response rating: 0
rape; [5]
  Rape plant response rating: 6
rape; [8]
  Rape plant response rating: 6
rape; [6]
  Rape plant response rating: 5
soybean; [1]
  Plant response rating, Soybean: 3
soybean; [7]
  Soybean plant response rating: 4
soybean; [2]
  Plant response rating, Soybean: 0
soybean; [3]
  Soybean plant response rating: 2
soybean; [4]
  Soybean plant response rating: 0
soybean; [5]
  Soybean plant response rating: 5
soybean; [8]
  Soybean plant response rating: 5
soybean; [6]
  Soybean plant response rating: 3
Sugar beet; [1]
  Plant response rating, Sugarbeets: 1
Sugar beet; [7]
  Sugarbeets plant response rating: 3
Sugar beet; [2]
  Plant response rating, Sugarbeets: 2
Sugar beet; [3]
  Sugarbeets plant response rating: 6
Sugar beet; [4]
  Sugarbeets plant response rating: 0
Sugar beet; [5]
  Sugarbeets plant response rating: 4
Sugar beet; [8]
  Sugarbeets plant response rating: 4
Sugar beet; [6]
  Sugarbeets plant response rating: 7
velvetleaf; [1]
  Plant response rating, Velvetleaf: 0
velvetleaf; [7]
  Velvetleaf plant response rating: 3
velvetleaf; [2]
  Plant response rating, Velvetleaf: 0
velvetleaf; [3]
  Velvetleaf plant response rating: 0
velvetleaf; [4]
  Velvetleaf plant response rating: 0
velvetleaf; [5]
  Velvetleaf plant response rating: 3
velvetleaf; [8]
  Velvetleaf plant response rating: 3
velvetleaf; [6]
  Velvetleaf plant response rating: 2
wheat; [1]
  Plant response rating, Wheat: 0
wheat; [7]
  Wheat plant response rating: 0
wheat; [2]
  Plant response rating, Wheat: 0
wheat; [3]
  Wheat plant response rating: 1
wheat; [4]
  Wheat plant response rating: 0
wheat; [5]
  Wheat plant response rating: 0
wheat; [8]
  Wheat plant response rating: 0
wheat; [6]
  Wheat plant response rating: 1
Wild oat; [1]
  Plant response rating, Wild oats: 0
Wild oat; [7]
  Wild oats plant response rating: 0
Wild oat; [2]
  Plant response rating, Wild oats: 0
Wild oat; [3]
  Wild oats plant response rating: 5
Wild oat; [4]
  Wild oats plant response rating: 0
Wild oat; [5]
  Wild oats plant response rating: 0
Wild oat; [8]
  Wild oats plant response rating: 2
Wild oat; [6]
  Wild oats plant response rating: 8
Purple nutsedge; [1]
  Plant response rating, Nutsedge: 0
Purple nutsedge; [7]
  Nutsedge plant response rating: 0
Purple nutsedge; [2]
  Plant response rating, Nutsedge: 0
Purple nutsedge; [3]
  Nutsedge plant response rating: 0
Purple nutsedge; [4]
  Nutsedge plant response rating: 0
Purple nutsedge; [5]
  Nutsedge plant response rating: 0
Purple nutsedge; [8]
  Nutsedge plant response rating: 0
